Experimental data published in PMC12155096 (International Journal of Molecular Sciences, 2025).
Counter-ions that a name gives are not always drawn. Like-named read-outs stand apart in the source and are kept apart here.

Assays:
[1] = biological target: human CYP2D6 (Homo sapiens, UniProt P10635)
[2] = biological target: T1, human CYP1A2 (Homo sapiens, UniProt P05177)
T1 sequence (P05177 1-516): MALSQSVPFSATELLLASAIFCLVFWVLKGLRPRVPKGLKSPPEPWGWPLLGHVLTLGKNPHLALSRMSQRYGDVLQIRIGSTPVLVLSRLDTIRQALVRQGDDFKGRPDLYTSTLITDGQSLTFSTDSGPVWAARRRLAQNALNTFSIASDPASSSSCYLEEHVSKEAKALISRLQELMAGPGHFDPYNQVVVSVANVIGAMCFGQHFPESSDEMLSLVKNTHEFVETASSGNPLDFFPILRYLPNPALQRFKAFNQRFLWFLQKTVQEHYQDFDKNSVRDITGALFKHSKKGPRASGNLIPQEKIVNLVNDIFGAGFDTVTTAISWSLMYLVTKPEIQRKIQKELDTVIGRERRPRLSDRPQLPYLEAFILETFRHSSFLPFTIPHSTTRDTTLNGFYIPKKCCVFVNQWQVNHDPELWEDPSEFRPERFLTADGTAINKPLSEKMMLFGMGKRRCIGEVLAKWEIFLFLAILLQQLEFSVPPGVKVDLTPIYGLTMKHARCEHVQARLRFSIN

[3] = biological target: human CYP2C19 (Homo sapiens, UniProt P33261)
[4] = biological target: human CYP2C9 (Homo sapiens, UniProt P11712); assay: biochemical
[5] = CYP2C9 AC50 (half-maximal activity concentration)
[6] = CYP2C9 IC50 (half-maximal inhibitory concentration)

human CYP2C9, sequence (P11712 whole entry): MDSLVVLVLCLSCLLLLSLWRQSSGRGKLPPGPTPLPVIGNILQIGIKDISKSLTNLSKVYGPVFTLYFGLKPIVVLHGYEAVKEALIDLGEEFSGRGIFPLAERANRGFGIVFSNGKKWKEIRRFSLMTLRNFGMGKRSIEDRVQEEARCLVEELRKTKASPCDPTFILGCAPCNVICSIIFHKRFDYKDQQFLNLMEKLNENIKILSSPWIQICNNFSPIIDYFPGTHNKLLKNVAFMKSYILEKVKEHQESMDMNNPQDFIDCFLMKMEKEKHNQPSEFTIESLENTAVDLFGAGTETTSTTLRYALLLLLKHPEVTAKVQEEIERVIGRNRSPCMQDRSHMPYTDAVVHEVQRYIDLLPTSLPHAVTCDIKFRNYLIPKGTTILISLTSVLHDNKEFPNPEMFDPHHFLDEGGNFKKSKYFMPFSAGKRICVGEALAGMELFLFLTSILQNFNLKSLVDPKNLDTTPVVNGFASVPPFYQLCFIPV
human CYP2C19, sequence (P33261 whole entry): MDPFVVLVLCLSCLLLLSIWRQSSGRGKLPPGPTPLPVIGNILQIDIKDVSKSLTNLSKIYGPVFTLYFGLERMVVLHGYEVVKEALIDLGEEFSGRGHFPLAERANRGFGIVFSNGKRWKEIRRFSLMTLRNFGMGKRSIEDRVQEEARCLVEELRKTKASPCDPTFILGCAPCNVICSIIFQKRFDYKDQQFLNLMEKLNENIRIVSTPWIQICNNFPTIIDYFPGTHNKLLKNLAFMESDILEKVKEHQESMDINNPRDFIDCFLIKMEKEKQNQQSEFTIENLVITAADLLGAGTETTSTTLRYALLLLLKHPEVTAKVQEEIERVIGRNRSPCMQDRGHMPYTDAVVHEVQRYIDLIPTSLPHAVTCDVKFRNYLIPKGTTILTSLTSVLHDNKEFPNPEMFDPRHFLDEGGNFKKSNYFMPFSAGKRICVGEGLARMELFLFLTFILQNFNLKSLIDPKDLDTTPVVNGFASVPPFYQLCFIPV
human CYP2D6, sequence (P10635 whole entry): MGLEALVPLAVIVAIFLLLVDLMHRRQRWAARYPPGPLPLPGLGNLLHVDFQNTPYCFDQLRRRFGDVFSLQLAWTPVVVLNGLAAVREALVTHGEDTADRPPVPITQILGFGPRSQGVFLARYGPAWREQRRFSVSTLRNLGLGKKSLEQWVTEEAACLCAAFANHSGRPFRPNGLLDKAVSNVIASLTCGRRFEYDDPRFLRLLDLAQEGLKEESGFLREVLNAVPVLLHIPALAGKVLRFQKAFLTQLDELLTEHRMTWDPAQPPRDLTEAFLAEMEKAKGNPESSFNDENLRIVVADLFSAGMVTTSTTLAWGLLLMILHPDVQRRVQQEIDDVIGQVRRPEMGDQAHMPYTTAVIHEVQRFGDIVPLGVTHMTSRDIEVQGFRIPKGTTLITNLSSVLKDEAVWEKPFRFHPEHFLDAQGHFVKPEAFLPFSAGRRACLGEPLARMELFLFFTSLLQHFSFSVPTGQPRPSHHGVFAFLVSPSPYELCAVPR

SMILES: Nc1nc2ccccc2n1Cc1ccc(F)cc1
- CYP2D6 Efficacy (in parenthesis) [1]: 0.67 ± 0.04 (-102 ± 1) %
- IC50 [1]: 0.67 µM
- CYP1A2 Efficacy (in parenthesis) [2]: 19.77 ± 4.14 (-57 ± 9) %
- IC50 [2]: 19.8 µM
- CYP2C19 Efficacy (in parenthesis) [3]: 17.62 ± 3.69 (-115 ± 18) %
- IC50 [3]: 17.6 µM

SMILES: Cc1cc(-c2cc(C)c(N)c(C)c2)cc(C)c1N [3,3'.5,5'-Tetramethylbenzidine]
- IC50 [2]: 0.45 µM

SMILES: C[C@]12CCC(=O)C=C1CC[C@@H]1[C@@H]2CC[C@@]2(C)[C@H]1CC[C@]2(C)O [17-Methyltestosterone]
- AC50 [4, 5]: 32.7 µM

SMILES: CC(C)C[C@H](NC(=O)[C@H](CCc1ccccc1)NC(=O)CN1CCOCC1)C(=O)N[C@@H](Cc1ccccc1)C(=O)N[C@@H](CC(C)C)C(=O)[C@@]1(C)CO1 [Carfilzomib]
- IC50 [4, 6]: 29.2 µM

SMILES: CC(=O)O[C@]1(C(C)=O)CC[C@H]2[C@@H]3C=C(Cl)C4=CC(=O)[C@@H]5C[C@@H]5[C@]4(C)[C@H]3CC[C@@]21C [Cyproterone acetate]
- CYP2D6 AC50 (half-maximal activity concentration) [1]: Inactive
- CYP1A2 AC50 (half-maximal activity concentration) [2]: Inactive
- AC50 [4, 5]: 15 µM
- CYP2C19 AC50 (half-maximal activity concentration) [3]: Inconclusive inhibitor

SMILES: CCCCCCCCCC(=O)O [Decanoic acid]
- AC50 [4, 5]: 69.7 µM

SMILES: O=C(O)Cc1ccccc1Oc1ccc(Cl)cc1Cl [Fenclofenac]
- AC50 [4]: 29.7 ± 12.5 µM

SMILES: O=C(O)c1ccccc1Nc1cccc(C(F)(F)F)c1 [Flufenamic acid]
- AC50 [4]: 23.9 ± 9.43 µM

SMILES: Fc1ccc(C(c2ccc(F)cc2)N2CCN(C/C=C/c3ccccc3)CC2)cc1 [Flunarizine]
- AC50 [4, 5]: 14.9 µM

SMILES: COc1ccc(S(=O)(=O)Nc2nnc(CC(C)C)s2)cc1 [Glysobuzole]
- AC50 [4, 5]: 12.5 µM

SMILES: O=C(O)Cn1c(C(=O)Nc2nc(-c3ccccc3Cl)cs2)cc2ccccc21 [Lintitript]
- AC50 [4, 5]: 35.1 µM

SMILES: CCOC(=O)O[C@]1(C(=O)OCCl)CC[C@H]2[C@@H]3CCC4=CC(=O)C=C[C@]4(C)[C@H]3[C@@H](O)C[C@@]21C [Loteprednol etabonate, reference compound]
- IC50 [4, 6]: 29.2 µM

SMILES: CC(C)[C@H]1CC[C@H](C(=O)N[C@H](Cc2ccccc2)C(=O)O)CC1 [Nateglinide]
- AC50 [4, 5]: 14 µM

SMILES: O=C(OCC(COC(=O)c1cccnc1)(COC(=O)c1cccnc1)COC(=O)c1cccnc1)c1cccnc1 [Niceritrol]
- IC50 [4]: 3.44 µM

SMILES: O=c1[nH]c2ccccc2n1C1CCN(CCCC(c2ccc(F)cc2)c2ccc(F)cc2)CC1 [Pimozide]
- CYP1A2 AC50 (half-maximal activity concentration) [2]: Inactive

SMILES: CC(C)(C)C(=O)OCOC(=O)[C@@H]1N2C(=O)[C@@H](NC(=O)[C@H](N)c3ccccc3)[C@H]2SC1(C)C [Pivampicillin]
- IC50 [4, 6]: 23.6 µM

SMILES: CCCOC(=O)Cc1ccc(OCC(=O)N(CC)CC)c(OC)c1 [Propanidid]
- AC50 [4, 5]: 21.2 µM

SMILES: CCCOC(C(=O)OC1CCN(C)CC1)(c1ccccc1)c1ccccc1.Cl [Propiverine hydrochloride]
- IC50 [1]: 6.81 µM

SMILES: COc1ccc(S(=O)(=O)N2c3ccc(Cl)cc3[C@](O)(c3ccccc3Cl)[C@@H]2C(=O)N2CCC[C@H]2C(N)=O)cc1OC [Relcovaptan]
- IC50 [4]: 27.7 ± 9.09 µM

SMILES: CN(CCOc1ccc(CC2SC(=O)NC2=O)cc1)c1ccccn1 (stereo not shown) [Rosiglitazone maleate]
- CYP2C19 AC50 (half-maximal activity concentration) [3]: Inconclusive inhibitor

SMILES: CC(=O)N(c1onc(C)c1C)S(=O)(=O)c1ccc(N)cc1 [Sulfisoxazole acetal]
- AC50 [4, 5]: 25.8 µM

SMILES: O=C1OC(c2ccc(O)c(S(=O)(=O)O)c2)(c2ccc(O)c(S(=O)(=O)O)c2)c2c(Br)c(Br)c(Br)c(Br)c21 [Sulfobromophthalein]
- AC50 [4, 5]: 43.6 µM

SMILES: CCCC(CCC)C(=O)O [Valproic acid]
- AC50 [4, 5]: 47.3 µM

SMILES: CCC1=C[C@@H]2CN(C1)Cc1c([nH]c3ccccc13)[C@@](C(=O)OC)(c1cc3c(cc1OC)N(C)[C@H]1[C@@](O)(C(=O)OC)[C@H](OC(C)=O)[C@]4(CC)C=CCN5CC[C@]31[C@@H]54)C2 [Vinorelbine tartrate]
- IC50 [4, 6]: 21 µM

SMILES: O=C(O)Cn1c(=O)n(Cc2ccc(Br)cc2F)c(=O)c2ccc(Cl)cc21 [Zenarestat]
- AC50 [4]: 14.4 ± 0.97 µM

SMILES: COCCCC/C(=N\OCCN)c1ccc(C(F)(F)F)cc1 [fluvoxamine, reference compound]
- IC50 ([2]; human): 0.2 µM
